Experimental data: US5849560A, “Proteases causing degradation of amyloid β-protein precursor” (priority 1993, dated 1998)
Non-standard residues stand in square brackets, D forms with d. Residues, ends and D or L forms follow the SMILES beside them. *: point of attachment. Sta = CC(C)C[C@H](N)[C@@H](O)CC(=O)O; Isovaleryl = CC(C)CC(=O)*; Cbz = O=C(OCc1ccccc1)*; CH2F = FC*

Legend:
[1] = biological target: T1, "Met cut" metalloprotease (AD metalloprotease) purified from AD brain homogenate (Homo sapiens, UniProt P52888); assay: Effect of additives on synthetic peptide substrate (P1) degrading activity of the purified Met cut metalloprotease; assay type: biochemical; settings: for effect on metalloprotease activity (in words): concentrations as in Table II, divalent ions at 2 mM; for remaining activity at 5000 µM: reagent conc. 5.0 mM; for remaining activity at 150 µM: reagent conc. 0.15 mM; for remaining activity at 140 µM: reagent conc. 0.14 mM; for remaining activity at 200 µM: reagent conc. 0.2 mM
T1 construct: isolate and purify an AD metalloprotease from AD brain homogenate; from tissue; host or cells: brain of Alzheimer's disease patients
T1 sequence (P52888 whole entry): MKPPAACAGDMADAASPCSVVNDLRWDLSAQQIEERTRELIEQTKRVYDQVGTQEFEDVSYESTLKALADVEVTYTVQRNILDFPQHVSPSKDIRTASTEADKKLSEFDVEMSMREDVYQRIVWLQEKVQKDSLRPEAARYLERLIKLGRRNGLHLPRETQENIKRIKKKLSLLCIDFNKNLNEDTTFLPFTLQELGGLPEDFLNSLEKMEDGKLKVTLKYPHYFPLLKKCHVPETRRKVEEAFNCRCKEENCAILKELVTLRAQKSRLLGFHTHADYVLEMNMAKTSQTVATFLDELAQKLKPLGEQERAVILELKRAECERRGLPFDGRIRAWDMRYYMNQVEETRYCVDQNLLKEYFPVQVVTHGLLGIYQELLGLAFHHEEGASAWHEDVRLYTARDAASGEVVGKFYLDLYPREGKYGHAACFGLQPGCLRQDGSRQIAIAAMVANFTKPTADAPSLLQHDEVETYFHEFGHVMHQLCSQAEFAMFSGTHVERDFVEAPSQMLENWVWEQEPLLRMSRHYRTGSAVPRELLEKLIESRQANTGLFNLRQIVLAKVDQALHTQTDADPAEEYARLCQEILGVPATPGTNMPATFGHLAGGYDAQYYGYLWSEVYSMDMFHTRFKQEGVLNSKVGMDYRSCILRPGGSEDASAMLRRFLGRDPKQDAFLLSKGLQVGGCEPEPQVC
Protocol: The different protease fractions are monitored for proteolytic activity against iodinated peptide "P1". Incubations are carried out at 37° C. in 50 mM Tris-Cl, pH 7.4, in the presence of 1 mM MgCl2 +1 mM DTT. The proteolytic products are separated by TLC on cellulose microcrystalline plates, using n-butanol:pyridine:acetic acid:water, 15:10:3:12 (v/v), as a solvent, followed by autoradiography. […] ID NO. 1] to His-Ser-Glu-Val-Lys-Met [SEQ, ID NO. 2] were quantified with a Molecular Dynamics ImageQuant™ v3.0 scanning densitometer or a Bioscan system 200 imaging scanner. […] One unit of Met cut metalloprotease activity under these conditions was defined as converting 1 μg of P1 to His-Ser-Glu-Val-Lys-Met [SEQ. ID NO. 2] in 1 min.
Referring now to Table II, the effects of various additives on the activity degrading the synthetic substrate (P1) were examined. The metalloprotease sample as incubated with the appropriate amount of additive and assayed for remaining activity, as described above. Control reactions with no reagent, or containing only the solvent of the reagent were always included. Reactions were allowed to proceed for 45 min at 4° C., except E-64 which was incubated for 15 or 30 min (b and c respectively) and iodoacetamide was incubated at 37° C. for 30 min.
Stock solutions of phenylmethylsulfonyl fluoride (PMSF)", E-64, 1,10 phenanthroline, calpain inhibitor, Z-Phe-Phe-CH2 F (Enzyme Systems Products, Livermore, Calif.) were dissolved in ethanol. […] ZINCOV (Calbiochem, Calif.) and phosphoramidon (Sigma, USA), were also dissolved in water. Pepstatin A was dissolved in methanol. The susceptibility of the protease activity to various divalent cations was determined by including metals at a final concentration of 2 mM in the assay reaction mixture.

[2] = test system: Ca2+ activated serine protease (serine AD proteolytic factor) from AD brain; assay: Peptide degradation assay (125I-P1, TLC) with the serine AD proteolytic factor and inhibitors; assay type: biochemical, human
[3] = reagent conc. 1.0 mM, 45 min at 4° C.
[4] = concentrations as in Table II (iodoacetamide 8.0 mM, leupeptin 0.2 mM), read-out: partial inhibitory effect on the protease

O[C@H](CS)[C@H](O)CS (racemic) [Dithiothreitol, dithiothreitol]
effect on metalloprotease activity (in words) [1]: required for the activity
% Activity Remaining ([1]; reagent conc. 0.0 mM): 0%
remaining activity at 1000 µM [1, 3]: 100%
remaining activity at 2500 µM ([1]; reagent conc. 2.5 mM): 70.8%
remaining activity at 5000 µM ([1]; 45 min at 4° C.): 25.5%

c1cnc2c(c1)ccc1cccnc12 [1,10 phenanthroline]
effect on metalloprotease activity (in words) [1]: Strong inhibition
remaining activity at 4000 µM ([1]; reagent conc. 4.0 mM, 45 min at 4° C.): 0%

CC(C)C[C@H](NC(=O)[C@@H](O)[C@H](N)Cc1ccccc1)C(=O)O [Bestatin]
remaining activity at 2 µM ([1]; reagent conc. 0.002 mM, 45 min at 4° C.): 60%

C[C@H](NC(=O)[C@H](C)NC(CCc1ccccc1)C(=O)O)C(=O)N[C@@H](Cc1ccccc1)C(=O)Nc1ccc(C(=O)O)cc1 (stereo partly drawn) [CPP-Ala-Ala-Phe-pAB]
effect on metalloprotease activity (in words) [1]: strongly inhibited
remaining activity at 15 µM ([1]; reagent conc. 0.015 mM, 45 min at 4° C.): 47.5%
remaining activity at 150 µM ([1]; 45 min at 4° C.): 28%

CC(C)CC(NC(=O)C1OC1C(=O)O)C(=O)NCCCCN=C(N)N (stereo not shown) [E-64]
effect on metalloprotease activity (in words) [1]: less
remaining activity at 140 µM ([1]; incubated 15 min (b)): 57.5%
remaining activity at 140 µM ([1]; incubated 30 min (c)): 27.3%

O=C(O)CN(CCOCCOCCN(CC(=O)O)CC(=O)O)CC(=O)O [EGTA]
effect on cleavage of 125I-P1 by the serine AD proteolytic factor (in words) [2]: prevent cleavage
effect on metalloprotease activity (in words) [1]: Strong inhibition
remaining activity at 7500 µM ([1]; reagent conc. 7.5 mM, 45 min at 4° C.): 0%

O=C(O)c1cc[c]([Hg][OH])cc1 [Hydroxymercurybenzoate, hydroxymercurybenzoate]
effect on metalloprotease activity (in words) [1]: strong inhibition
% Activity Remaining ([1]; reagent conc. 1.6 mM, 45 min at 4° C.): 0%
reversal of inhibition by the reducing agent (DTT) ([1]; stoichiometrically increasing concentrations of DTT): readily reversed

NC(=O)CI [Iodoacetamide]
inhibition at 8000 µM [1, 4]: 34%
remaining activity at 8000 µM ([1]; reagent conc. 8.0 mM, 37° C. for 30 min): 66%

CC(=O)N[C@@H](CC(C)C)C(=O)N[C@@H](CC(C)C)C(=O)N[C@H](C=O)CCCNC(=N)N [Leupeptin]
inhibition at 200 µM [1, 4]: 36.3%
remaining activity at 200 µM ([1]; 45 min at 4° C.): 63.7%

CCN1C(=O)C=CC1=O [N-ethylmaleimide]
effect on metalloprotease activity (in words) [1]: strong inhibition
remaining activity at 5000 µM ([1]; 45 min at 4° C.): 7.9%

O=S(=O)(F)Cc1ccccc1 [PMSF, phenylmethylsulfonyl fluoride]
% Activity Remaining ([1]; reagent conc. 7.0 mM, 45 min at 4° C.): 100%

CC(C)CC(=O)N[C@H](C(=O)N[C@H](C(=O)N[C@@H](CC(C)C)[C@@H](O)CC(=O)N[C@@H](C)C(=O)N[C@@H](CC(C)C)[C@@H](O)CC(=O)O)C(C)C)C(C)C [Pepstatin A] (Isovaleryl-VV[Sta]A[Sta]-OH)
remaining activity at 150 µM ([1]; 45 min at 4° C.): 100%

CC(C)C[C@H](NP(=O)(O)O[C@@H]1O[C@@H](C)[C@H](O)[C@@H](O)[C@H]1O)C(=O)N[C@@H](Cc1c[nH]c2ccccc12)C(=O)O [Phosphoramidon]
remaining activity at 1000 µM [1, 3]: 89.5%

O=C(N[C@@H](Cc1ccccc1)C(=O)N[C@@H](Cc1ccccc1)C(=O)CF)OCc1ccccc1 [Z-Phe-Phe-CH2F] (Cbz-Phe-Phe-CH2F)
remaining activity at 200 µM ([1]; 45 min at 4° C.): 82.7%

CC(C)CC(C(=O)NO)C(=O)N[C@@H](C)C(=O)NCC(N)=O (stereo partly shown) [ZINCOV]
effect on metalloprotease activity (in words) [1]: Strong inhibition
% Activity Remaining [1, 3]: 42.4%

Aprotinin
% Activity Remaining ([1]; reagent conc. 0.03 mM, 45 min at 4° C.): 100%

albumin
effect on cleavage of 125I-P1 by the serine AD proteolytic factor (in words) [2]: did not influence the activity

B1: protease nexin 1: protease nexin 1 (protein, UniProt P07093 20-398, looked up)
Glia-derived nexin: SHFNPLSLEELGSNTGIQVFNQIVKSRPHDNIVISPHGIASVLGMLQLGADGRTKKQLAMVMRYGVNGVGKILKKINKAIVSKKNKDIVTVANAVFVKNASEIEVPFVTRNKDVFQCEVRNVNFEDPASACDSINAWVKNETRDMIDNLLSPDLIDGVLTRLVLVNAVYFKGLWKSRFQPENTKKRTFVAADGKSYQVPMLAQLSVFRCGSTSAPNDLWYNFIELPYHGESISMLIALPTESSTPLSAIIPHISTKTIDSWMSIMVPKRVQVILPKFTAVAQTDLKEPLKVLGITDMFDSSKANFAKITTGSENLHVSHILQKAKIEVSEDGTKASAATTAILIARSSPPWFIVDRPFLFFIRHNPTGAVLFMGQINKP
effect on cleavage of 125I-P1 by the serine AD proteolytic factor (in words) [2]: did not influence the activity

B2: ACT: serine protease inhibitor α1-antichymotrypsin (Calbiochem) (protein, UniProt P01011 24-423, looked up)
Alpha-1-antichymotrypsin: HPNSPLDEENLTQENQDRGTHVDLGLASANVDFAFSLYKQLVLKAPDKNVIFSPLSISTALAFLSLGAHNTTLTEILKGLKFNLTETSEAEIHQSFQHLLRTLNQSSDELQLSMGNAMFVKEQLSLLDRFTEDAKRLYGSEAFATDFQDSAAAKKLINDYVKNGTRGKITDLIKDLDSQTMMVLVNYIFFKAKWEMPFDPQDTHQSRFYLSKKKWVMVPMMSLHHLTIPYFRDEELSCTVVELKYTGNASALFILPDQDKMEEVEAMLLPETLKRWRDSLEFREIGELYLPKFSISRDYNLNDILLQLGIEEAFTSKADLSGITGARNLAVSQVVHKAVLDVFEEGTEASAATAVKITLLSALVETRTIVRFNRPFLMIIVPTDTQNIFFMSKVTNPKQA
effect on cleavage of 125I-P1 by the serine AD proteolytic factor (in words) [2]: inhibited cleavage

B3: Soybean Trypsin Inhibitor: Soybean Trypsin Inhibitor, protease inhibitor tested in Table II (protein, UniProt P01070 25-205, looked up)
Trypsin inhibitor A: DFVLDNEGNPLENGGTYYILSDITAFGGIRAAPTGNERCPLTVVQSRNELDKGIGTIISSPYRIRFIAEGHPLSLKFDSFAVIMLCVGIPTEWSVVEDLPEGPAVKIGENKDAMDGWFRLERVSDDEFNNYKLVFCPQQAEDDKCGDIGISIDHDDGTRRLVVSKNKPLVVQFQKLDKESL
% Activity Remaining ([1]; reagent conc. 0.01 mM, 45 min at 4° C.): 100%
